Assay results taken from PubChem BioAssay (NCI).
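Five concentrations, 48 hours, 96-well plates. GI50: concentration for 50% inhibition of growth. Definition used: TGI = concentration required for complete inhibition of growth.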

Columns and labels:
Experiment in all cases: growth of human tumour cells (NCI), 48 h
786-0 renal = tested on: 786-0 renal
NCI-H522 lung = tested on: NCI-H522 lung
OVCAR-4 ovarian = tested on: OVCAR-4 ovarian
HT29 colon = tested on: HT29 colon
OVCAR-8 ovarian = tested on: OVCAR-8 ovarian
HCC-2998 colon = tested on: HCC-2998 colon
EKVX NSCLC = tested on: EKVX NSCLC
MDA-MB-231 breast = tested on: MDA-MB-231 breast
A549 NSCLC = tested on: A549 NSCLC
SK-MEL-5 melanoma = tested on: SK-MEL-5 melanoma
HCT-15 colon = tested on: HCT-15 colon
BT-549 breast = tested on: BT-549 breast
MDA-MB-435 = tested on: MDA-MB-435
NCI-H226 lung = tested on: NCI-H226 lung
DU-145 prostate = tested on: DU-145 prostate
NCI-H23 lung = tested on: NCI-H23 lung
A498 renal = tested on: A498 renal
SK-MEL-28 melanoma = tested on: SK-MEL-28 melanoma
SK-OV-3 ovarian = tested on: SK-OV-3 ovarian
NCI-H460 lung = tested on: NCI-H460 lung
SF-539 CNS = tested on: SF-539 CNS
COLO 205 colon = tested on: COLO 205 colon
UACC-257 melanoma = tested on: UACC-257 melanoma
LOX IMVI melanoma = tested on: LOX IMVI melanoma
HCT-116 colon = tested on: HCT-116 colon
SNB-75 CNS = tested on: SNB-75 CNS
SN12C renal = tested on: SN12C renal
T-47D breast = tested on: T-47D breast
CCRF-CEM leukemia = tested on: CCRF-CEM leukemia
U251 CNS = tested on: U251 CNS
UACC-62 melanoma = tested on: UACC-62 melanoma
SW-620 colon = tested on: SW-620 colon
SF-268 CNS = tested on: SF-268 CNS
PC-3 prostate = tested on: PC-3 prostate
SK-MEL-2 melanoma = tested on: SK-MEL-2 melanoma
ACHN renal = tested on: ACHN renal
SF-295 CNS = tested on: SF-295 CNS
NCI/ADR-RES ovarian = tested on: NCI/ADR-RES ovarian
RPMI-8226 leukemia = tested on: RPMI-8226 leukemia
CAKI-1 renal = tested on: CAKI-1 renal
HS 578T breast = tested on: HS 578T breast
MOLT-4 leukemia = tested on: MOLT-4 leukemia
K-562 leukemia = tested on: K-562 leukemia
M14 melanoma = tested on: M14 melanoma
TK-10 renal = tested on: TK-10 renal
UO-31 renal = tested on: UO-31 renal
MCF7 breast = tested on: MCF7 breast
HOP-62 NSCLC = tested on: HOP-62 NSCLC
HL-60(TB) leukemia = tested on: HL-60(TB) leukemia
SNB-19 CNS = tested on: SNB-19 CNS
MALME-3M melanoma = tested on: MALME-3M melanoma
RXF 393 renal = tested on: RXF 393 renal
OVCAR-3 ovarian = tested on: OVCAR-3 ovarian
KM12 colon = tested on: KM12 colon
OVCAR-5 ovarian = tested on: OVCAR-5 ovarian
HOP-92 NSCLC = tested on: HOP-92 NSCLC
IGROV1 ovarian = tested on: IGROV1 ovarian

Compound CNC(C)[C@H]1CCC2C3CC=C4C(=O)[C@@H](NC(=O)C=C(C)C)CC[C@]4(C)C3CC[C@@]21C (some centres undefined) has a GI50 (786-0 renal) of 1.56 µM, a TGI (786-0 renal) of 3.16 µM and a GI50 (NCI-H522 lung) of 2.27 µM. The TGI (NCI-H522 lung) was 7.55 µM, the GI50 (OVCAR-4 ovarian) was 2.22 µM and the TGI (OVCAR-4 ovarian) was 17.9 µM. The GI50 (HT29 colon) was 0.358 µM, the TGI (HT29 colon) was 1.59 µM and the GI50 (OVCAR-8 ovarian) was 3.91 µM. It also gave a TGI (OVCAR-8 ovarian) of 20.2 µM, a GI50 (HCC-2998 colon) of 0.626 µM and a TGI (HCC-2998 colon) of 3.02 µM. The GI50 (EKVX NSCLC) was 1.14 µM, the TGI (EKVX NSCLC) was 11.2 µM and the GI50 (MDA-MB-231 breast) was 1.89 µM. It also gave a TGI (MDA-MB-231 breast) of 4.74 µM, a GI50 (A549 NSCLC) of 2.46 µM and a TGI (A549 NSCLC) of 6.82 µM. The GI50 (SK-MEL-5 melanoma) was 1.14 µM, the TGI (SK-MEL-5 melanoma) was 2.39 µM and the GI50 (HCT-15 colon) was 1.14 µM. The TGI (HCT-15 colon) was 2.89 µM, the GI50 (BT-549 breast) was 2.34 µM and the TGI (BT-549 breast) was 8.42 µM. It also gave a GI50 (MDA-MB-435) of 1.36 µM, a TGI (MDA-MB-435) of 3.27 µM and a GI50 (NCI-H226 lung) of 2.53 µM. The TGI (NCI-H226 lung) was 14.1 µM, the GI50 (DU-145 prostate) was 4.53 µM and the TGI (DU-145 prostate) was 16.9 µM. It also gave a GI50 (NCI-H23 lung) of 2.37 µM, a TGI (NCI-H23 lung) of 12.2 µM and a GI50 (A498 renal) of 1.3 µM. For the same compound, the TGI (A498 renal) was 8.26 µM, the GI50 (SK-MEL-28 melanoma) was 1.69 µM and the TGI (SK-MEL-28 melanoma) was 3.3 µM. For the same compound, the GI50 (SK-OV-3 ovarian) was 2.75 µM, the TGI (SK-OV-3 ovarian) was 9.5 µM and the GI50 (NCI-H460 lung) was 1.26 µM. The TGI (NCI-H460 lung) was 2.76 µM, the GI50 (SF-539 CNS) was 1.3 µM and the TGI (SF-539 CNS) was 2.64 µM. The GI50 (COLO 205 colon) was 1.51 µM, the TGI (COLO 205 colon) was 2.99 µM and the GI50 (UACC-257 melanoma) was 2.33 µM. The TGI (UACC-257 melanoma) was 5.54 µM, the GI50 (LOX IMVI melanoma) was 1.35 µM and the TGI (LOX IMVI melanoma) was 2.98 µM. It also gave a GI50 (HCT-116 colon) of 1.09 µM, a TGI (HCT-116 colon) of 2.53 µM and a GI50 (SNB-75 CNS) of 2.26 µM. It also gave a TGI (SNB-75 CNS) of 10.4 µM, a GI50 (SN12C renal) of 2.46 µM and a TGI (SN12C renal) of 10.5 µM. It also gave a GI50 (T-47D breast) of 0.925 µM, a TGI (T-47D breast) of 5.05 µM and a GI50 (CCRF-CEM leukemia) of 1.77 µM. For the same compound, the TGI (CCRF-CEM leukemia) was 7.8 µM, the GI50 (U251 CNS) was 2.19 µM and the TGI (U251 CNS) was 11.8 µM. The GI50 (UACC-62 melanoma) was 1.84 µM, the TGI (UACC-62 melanoma) was 3.54 µM and the GI50 (SW-620 colon) was 1.7 µM. For the same compound, the TGI (SW-620 colon) was 4.03 µM, the GI50 (SF-268 CNS) was 1.6 µM and the TGI (SF-268 CNS) was 3.66 µM. For the same compound, the GI50 (PC-3 prostate) was 1.9 µM, the TGI (PC-3 prostate) was 11.5 µM and the GI50 (SK-MEL-2 melanoma) was 2.74 µM. The TGI (SK-MEL-2 melanoma) was 6.9 µM, the GI50 (ACHN renal) was 3.29 µM and the TGI (ACHN renal) was 12.6 µM. The GI50 (SF-295 CNS) was 1.63 µM, the TGI (SF-295 CNS) was 4.41 µM and the GI50 (NCI/ADR-RES ovarian) was 3.44 µM. The TGI (NCI/ADR-RES ovarian) was 15 µM, the GI50 (RPMI-8226 leukemia) was 1.13 µM and the TGI (RPMI-8226 leukemia) was 5.27 µM. The GI50 (CAKI-1 renal) was 1.68 µM, the TGI (CAKI-1 renal) was 5.53 µM and the GI50 (HS 578T breast) was 1.87 µM. For the same compound, the TGI (HS 578T breast) was 6.82 µM, the GI50 (MOLT-4 leukemia) was 1.27 µM and the TGI (MOLT-4 leukemia) was 3.89 µM. For the same compound, the GI50 (K-562 leukemia) was 0.478 µM, the TGI (K-562 leukemia) was 2.19 µM and the GI50 (M14 melanoma) was 1.72 µM. The TGI (M14 melanoma) was 3.45 µM, the GI50 (TK-10 renal) was 2.89 µM and the TGI (TK-10 renal) was 10.4 µM. It also gave a GI50 (UO-31 renal) of 1.33 µM, a TGI (UO-31 renal) of 3.14 µM and a GI50 (MCF7 breast) of 1.7 µM. It also gave a TGI (MCF7 breast) of 5.98 µM, a GI50 (HOP-62 NSCLC) of 1.7 µM and a TGI (HOP-62 NSCLC) of 3.63 µM. For the same compound, the GI50 (HL-60(TB) leukemia) was 1.83 µM, the TGI (HL-60(TB) leukemia) was 4.75 µM and the GI50 (SNB-19 CNS) was 5.26 µM. For the same compound, the TGI (SNB-19 CNS) was 17.4 µM, the GI50 (MALME-3M melanoma) was 1.64 µM and the TGI (MALME-3M melanoma) was 3.47 µM. For the same compound, the GI50 (RXF 393 renal) was 1.45 µM, the TGI (RXF 393 renal) was 3.22 µM and the GI50 (OVCAR-3 ovarian) was 1.82 µM. It also gave a TGI (OVCAR-3 ovarian) of 6.04 µM, a GI50 (KM12 colon) of 2.46 µM and a TGI (KM12 colon) of 10.3 µM. It also gave a GI50 (OVCAR-5 ovarian) of 2.53 µM, a TGI (OVCAR-5 ovarian) of 10.9 µM and a GI50 (HOP-92 NSCLC) of 0.977 µM. For the same compound, the TGI (HOP-92 NSCLC) was 10.3 µM, the GI50 (IGROV1 ovarian) was 3.19 µM and the TGI (IGROV1 ovarian) was 11.8 µM.
